Measured values taken from PubChem BioAssay (NCI).
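Tested at 5 concentrations; 48 h exposure; 96-well plates; endpoints linearly interpolated, else capped at highest concentration. GI50: concentration for 50% inhibition of growth. TGI: total growth inhibition.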

Key:
Test in all cases: NCI anticancer screen, dose series, 48 h
K-562 leukemia = test system: K-562 leukemia
RXF 393 renal = test system: RXF 393 renal
SK-MEL-2 melanoma = test system: SK-MEL-2 melanoma
SK-MEL-28 melanoma = test system: SK-MEL-28 melanoma
UACC-257 melanoma = test system: UACC-257 melanoma
HOP-92 NSCLC = test system: HOP-92 NSCLC
CCRF-CEM leukemia = test system: CCRF-CEM leukemia
KM12 colon = test system: KM12 colon
UO-31 renal = test system: UO-31 renal
PC-3 prostate = test system: PC-3 prostate

SMILES | TGI (K-562 leukemia) [µM] | TGI (RXF 393 renal) [µM] | TGI (SK-MEL-2 melanoma) [µM] | TGI (SK-MEL-28 melanoma) [µM] | TGI (UACC-257 melanoma) [µM] | TGI (HOP-92 NSCLC) [µM] | TGI (CCRF-CEM leukemia) [µM] | TGI (KM12 colon) [µM] | TGI (UO-31 renal) [µM] | TGI (PC-3 prostate) [µM] | GI50 (K-562 leukemia) [µM] | GI50 (RXF 393 renal) [µM] | GI50 (SK-MEL-2 melanoma) [µM] | GI50 (PC-3 prostate) [µM] | GI50 (SK-MEL-28 melanoma) [µM] | GI50 (UACC-257 melanoma) [µM] | GI50 (CCRF-CEM leukemia) [µM] | GI50 (KM12 colon) [µM] | GI50 (UO-31 renal) [µM] | GI50 (HOP-92 NSCLC) [µM]
O=C(O)/C=C/C(=O)N1C/C(=C\c2ccccc2)C(=O)/C(=C/c2ccccc2)C1 | 7.86 | 17.5 | 17.2 | 15.9 | 15.8 | 37.9 | 7.18 | 6.07 | 24.9 | – | – | – | – | – | – | – | – | – | – | –
CC12Oc3ccc4ccccc4c3CC1Cc1c(ccc3ccccc13)O2 (configuration not stated) | – | 59.8 | > 100 | > 100 | > 100 | 11 | – | > 100 | > 100 | – | – | – | – | – | – | – | – | – | – | –
O=C(O)CCSC(=O)Nc1ccc(N=Nc2ccccc2)cc1 | > 100 | > 100 | – | > 100 | > 100 | > 100 | > 100 | > 100 | > 100 | – | – | – | – | – | – | – | – | – | – | –
O=C(Nc1ccc(Cl)c(Cl)c1)OCCN1c2ccccc2Sc2ccccc21 | > 10 | – | – | > 10 | > 10 | > 10 | > 10 | > 10 | – | > 10 | – | – | – | – | – | – | – | – | – | –
COc1cc2c(c(OC3OC(CO)C(O)C(O)C3O)c1)C(=O)CC(c1ccc(O)cc1)O2 (configuration not stated) | > 100 | – | > 100 | > 100 | > 100 | > 100 | – | > 100 | > 100 | > 100 | – | – | – | – | – | – | – | – | – | –
CN(C)C(=S)/N=c1\ss/c(=N\S(=O)(=O)c2ccccc2)n1N(C)C | > 100 | 85 | > 100 | > 100 | > 100 | – | > 100 | > 100 | > 100 | – | – | – | – | – | – | – | – | – | – | –
c1ccc2c(c1)C1=NCCN1c1ccccc1-2 | – | 6.14 | 8.05 | 15.2 | 7.71 | 21.7 | 5.98 | 14.6 | 18.4 | – | – | – | – | – | – | – | – | – | – | –
CCC(Oc1ccc(OC)c2ccccc(=O)c12)C(=O)O (configuration not stated) | > 100 | > 100 | > 100 | > 100 | > 100 | – | > 100 | > 100 | > 100 | – | – | – | – | – | – | – | – | – | – | –
O=C(NS(=O)(=O)c1ccccc1)C(Cc1ccccc1)C(Cc1ccccc1)C(=O)NS(=O)(=O)c1ccccc1 (configuration not stated) | > 100 | > 100 | > 100 | > 100 | > 100 | > 100 | > 100 | > 100 | > 100 | – | – | – | – | – | – | – | – | – | – | –
CN1CC(=O)N(C)c2nc[nH]c2C1=O | > 100 | > 100 | – | > 100 | – | – | > 100 | > 100 | > 100 | – | – | – | – | – | – | – | – | – | – | –
COC(=O)CCC(=O)NC1C2CC3CC(C2)CC1C3 (configuration not stated) | > 100 | > 100 | > 100 | > 100 | > 100 | > 100 | > 100 | > 100 | > 100 | – | – | – | – | – | – | – | – | – | – | –
COc1ccc(-c2nn(-c3cccc(NC(=O)c4ccc(N5CCOCC5)c(C(F)(F)F)c4)c3)cc2-c2ccncc2)cc1Cl | > 50 | 23.3 | > 50 | > 50 | > 50 | – | > 50 | > 50 | > 50 | > 50 | 1.89 | 1.35 | 16.3 | 3.49 | 9.97 | > 50 | 2.92 | 2.11 | 20.8 | –
CC1=C(/C=C/C(C)=C/C=C/C(C)=C/CO)C(C)(C)CCC1 | > 100 | 28.3 | 44 | 48.5 | 84.4 | – | 46.4 | > 100 | 31.8 | > 100 | – | – | – | – | – | – | – | – | – | –
Cc1cccc2nc3cccc(C(=O)NCCN(C)C)c3nc12 | 10.9 | 2.99 | 2.96 | 2.93 | 2.61 | 4.12 | > 100 | 77.3 | 1.56 | – | – | – | – | – | – | – | – | – | – | –
O=C1OC(OCC#CCOC2OC(=O)C(Cl)=C2Cl)C(Cl)=C1Cl (configuration not stated) | – | – | 32.2 | 30.1 | 32.3 | – | 4.63 | 39.3 | 24 | 27.1 | – | – | – | – | – | – | – | – | – | –
O=C1CC(c2ccc(Cl)cc2)Oc2ccccc21 (configuration not stated) | 9.46 | – | 37.8 | > 100 | > 100 | 56.5 | 37.4 | 31.5 | > 100 | 52.5 | – | – | – | – | – | – | – | – | – | –
Cc1ccccc1-n1c(C)nc(-c2ccccc2)cc1=O | > 100 | > 100 | > 100 | > 100 | > 100 | > 100 | > 100 | > 100 | > 100 | – | – | – | – | – | – | – | – | – | – | –
c1ccc(CNc2nc(Nc3ccccc3)nc3ccccc23)cc1 | – | 3.2 | – | 3.24 | 3.78 | 3.05 | 6 | 10.1 | 8.53 | 4.9 | – | 1.65 | – | 1.66 | 1.7 | 1.78 | 2.13 | 2.92 | 2.1 | 1.45
O=C1C=CC(CC(=O)c2ccc3ccccc3c2)O1 (configuration not stated) | > 100 | 36.6 | 47.5 | > 100 | > 100 | 47 | 63.4 | 31.4 | 39.2 | – | – | – | – | – | – | – | – | – | – | –
C=C1[C@@H]([C@@]2(C)C=CC(=O)C(C)(C)[C@@H]2CC(=O)OC)CC[C@@]2(C)C(c3ccoc3)OC(=O)[C@H]3O[C@]132 (some centres not stated) | – | – | > 100 | > 100 | > 100 | > 100 | > 100 | > 100 | > 100 | > 100 | – | – | – | – | – | – | – | – | – | –
COc1ccc(C2=CC(c3ccc(OC)c(OC)c3)c3c(c4ccccc4oc3=O)O2)cc1OC (configuration not stated) | > 100 | – | > 100 | > 100 | > 100 | > 100 | > 100 | > 100 | > 100 | > 100 | 1.02 | – | 12.2 | 0.745 | – | 1.13 | 2.36 | 1.25 | 1.58 | 4.8
C[C@H]1C(=O)CC[C@]2(C)CCC(C(C)(C)O)CC12O (some centres not stated) | > 100 | > 100 | > 100 | > 100 | > 100 | > 100 | > 100 | > 100 | > 100 | – | – | – | – | – | – | – | – | – | – | –
